From patent US20070254847A1, “Pharmaceutical Composition Containing Steroidal Saponins, the Preparation Method and Use Thereof” (priority 2004, published 2007)
Marks after values point to notes of the source that are not given here.

System: acute myocardial infarction in rats
Assay: Effect on acute myocardial infarction in rats (ligation of left anterior descending coronary artery)
Format: in vivo, Wistar rats
Procedure: Test 1 Effect of Pseudoprotogracillin (□) on Acute Myocardial Infarction in Rats:
Pseudoprotogracillin (□) obtained in example 4 was applied in relevant pharmacological tests as follows:
Wistar rats, each weighing 180˜220 g, were randomized into 3 groups, namely control group, pseudoprotogracillin group of high dose and pseudoprotogracillin group of low dose, each of which had 12 rats. The rats in the control group were administered by gastric infusion of distilled water. The other rats in test groups were administered by gastric infusion of the relevant medicinal liquid (prepared with distilled water), according to the high dose (3 mg/kg) or low dose (1.5 mg/kg) listed in following table for each group, respectively. Infusion was performed once a day and continued for one week. 1 hour after last administration, urethane of 1 g/kg was given to the rats for abdominal anesthesia. The animal was fixed on its back and its skin was cut open along the midline of its sternum, along the left edge of which an incision was made for the heart to be squzeezed out quickly. Ligation was immediately made at the root of the left anterior descending branch of its coronary artery before putting the heart back into its thorax, which was then closed by suture and spontaneous breathing was restored. The test was ended 3 hours after ligation and the heart was sliced transversely below the line of ligation. 5 slices were blue-stained with nitrotetrazolium and an multiple color pathological analyzer (MPIAS-500) was applied to measure the areas of normal myocardium and infarct myocardium at a fixed imaging distance and to observe the degree of myocardial infarction.

[1] = High dose 3 mg/kg, gastric infusion once a day for one week, 3 hours after ligation, X ± s
[2] = Low dose 1.5 mg/kg, gastric infusion once a day for one week, 3 hours after ligation, X ± s

“26-0-β-D-glucopyranosyl-3β, 26 glyco-25 (R)-Δ^5,20(22)-diene-furo-3-O-[α-L-Rhamnop yranosyl(1→2)]-[β-D-glucopyranosyl(1→3)]-β-D-glucopyranoside [pseudoprotogracillin (II)]” was tested, and the “Percentage of infarct area to the heart” value [1] was 20.74 ± 1.9 %, the “Percentage of infarct area to ventricle” value [1] was 24.5 ± 2.6 % and the Weight of infraction [1] was 0.227 ± 0.032 g. For the same substance, the Area of infraction [2] was 91.3 ± 11.49* mm^2, the “Percentage of infarct area to the heart” value [2] was 25.2 ± 2.3 % and the “Percentage of infarct area to ventricle” value [2] was 28.1 ± 1.9 %. The Weight of infraction [2] was 0.241 ± 0.045 g and the “Action on myocardium (in words)” value (high and low dose vs control group) was “obvious action to protect myocardium”.
